“And” between values parts separate entries of the source, which are not always exact repeats. Identical values can stand only once.
Test system: WM3248 melanoma cells, 486 antibodies
Experiment: Reverse phase protein arrays (RPPA);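 for CA9.R.C RPPA level: ratio of treated to vehicle (0 µM) normalized linear protein signal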;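 for CD171.M.V RPPA level: ratio of treated to vehicle (0 µM) normalized linear protein signal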;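 for CREB pS133.R.C RPPA level: ratio of treated to vehicle (0 µM) normalized linear protein signal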;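 for Cyclin.B1.R.V RPPA level: ratio of treated to vehicle (0 µM) normalized linear protein signal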
Format: cell-based, Human
Conditions: 5 uM
From the text: Pellets were snap frozen in liquid nitrogen and shipped to MD Anderson Cancer Center core RPPA facility for RPPA analysis (Table S5). Three biological replicates for each sample were generated.
Nomenclatures on the RPPA heatmaps: name_of_antibody.species_of_antibody.status_of_antibody. V - antibody validated; C - validation of antibody in progress; Q - antibody nonspecific; E – under evaluation; antibodies raised in M - mouse, G - goat, R - rabbit, or T - rat.

## CN(C)c1cccc(Nc2cc(-c3ccccc3)nc(C3CCNCC3)n2)c1 [ARN22089, N1,N1-dimethyl-N3-(6-phenyl-2-(piperidin-4-yl)pyrimidin-4-yl)benzene-1,3-diamine]
Individual replicates
  RPPA signal, antibody Vinculin.M.V: 0.948 and 1.034 and 1.010
  RPPA signal, antibody WIPI1.R.C: 1.016 and 0.609
  RPPA signal, antibody WIPI2.R.C: 0.917 and 1.190 and 1.151
  RPPA signal, antibody WTAP.R.V: 1.007 and 0.770 and 0.970
  RPPA signal, antibody Wee1.R.C: 0.852 and 1.576 and 1.161
  RPPA signal, antibody Wee1_pS642.R.C: 0.857 and 1.327 and 1.158
  RPPA signal, antibody XBP.1.G.C: 1.019 and 0.701
  RPPA signal, antibody XIAP.R.C: 1.016 and 1.128
  RPPA signal, antibody XPA.M.V: 1.083 and 0.917 and 1.035
  RPPA signal, antibody XPF.R.C: 0.939 and 1.048
  RPPA signal, antibody XRCC1.R.C: 1.023 and 0.932 and 0.869
  RPPA signal, antibody YAP.R.C: 1.026 and 0.858 and 1.131
  RPPA signal, antibody YAP_pS127.R.V: 0.924 and 0.808 and 1.102
  RPPA signal, antibody YB1_pS102.R.V: 0.854 and 0.995
  RPPA signal, antibody YES1.R.V: 1.034 and 0.913 and 0.948
  RPPA signal, antibody YTHDF2.R.V: 1.139 and 0.982 and 0.641
  RPPA signal, antibody YTHDF3.R.C: 0.920 and 0.753
  RPPA signal, antibody ZAP.70.R.V: 0.901 and 1.193
  RPPA signal, antibody ZEB1.R.V: 0.874 and 1.035
replicates
  C.Raf.R.C RPPA level: 0.877 and 1.136
  C.Raf_pS338.R.V RPPA level: 1.205
  CA9.R.C RPPA level: 0.982 and 0.948 and 1.015
  CD2.M.C RPPA level: 1.000 and 0.961 and 1.133
  CD4.R.V RPPA level: 0.886 and 1.117
  CD5.M.C RPPA level: 1.034 and 0.973
  CD20.R.C RPPA level: 1.057 and 0.829 and 0.477
  CD26.R.V RPPA level: 0.893 and 1.128 and 0.797
  CD29.M.V RPPA level: 0.991 and 0.954 and 1.138
  CD31.M.V RPPA level: 1.000 and 0.925 and 1.157
  CD38.R.C RPPA level: 0.963 and 1.191 and 1.116
  CD44.R.C RPPA level: 0.984 and 0.955 and 0.823
  CD45.M.V RPPA level: 1.027 and 0.978 and 1.076
  CD49b.M.V RPPA level: 1.059 and 0.901 and 0.919
  CD68.M.C RPPA level: 1.053 and 0.950 and 1.032
  CD74.M.V RPPA level: 0.953
  CD134.R.V RPPA level: 1.004 and 0.980 and 1.076
  CD171.M.V RPPA level: 0.646 and 0.896 and 0.990
  CDK1_pT14.R.C RPPA level: 0.964 and 1.128
  CDK9.R.V RPPA level: 1.046 and 0.940 and 0.953
  CDKN2A.R.C RPPA level: 1.033 and 0.974 and 1.120
  CDT1.R.V RPPA level: 1.009 and 1.034
  CENP.A.R.V RPPA level: 1.061 and 0.838 and 0.961
  CIITA.R.C RPPA level: 0.973 and 0.944 and 0.768
  COG3.R.V RPPA level: 1.020 and 1.162 and 1.108
  CRABP1.R.C RPPA level: 1.003 and 1.061
  CRABP2.R.V RPPA level: 1.206 and 0.955 and 0.945
  CREB_pS133.R.C RPPA level: 0.945 and 1.492 and 0.936
  CSK.R.C RPPA level: 1.015 and 1.119 and 0.620
  Calnexin.R.V RPPA level: 0.967 and 1.097
  Caspase.3.cleaved.R.C RPPA level: 0.926 and 1.159
  Caspase.7.cleaved..R.C RPPA level: 0.858 and 1.158
  Caspase.8.M.Q RPPA level: 1.096 and 0.944
  Caspase.8.cleaved.R.C RPPA level: 0.924 and 1.111 and 1.128
  Caveolin.1.R.V RPPA level: 0.498 and 0.935 and 1.046
  Cdc6.R.V RPPA level: 0.936
  Cdc42.R.C RPPA level: 0.966 and 1.031
  Chk1.M.C RPPA level: 1.078 and 0.961
  Chk1_pS296.R.V RPPA level: 0.982 and 1.154 and 1.114
  Chk1_pS345.R.C RPPA level: 1.000 and 1.084 and 0.861
  Chk2.M.V RPPA level: 1.157 and 0.671
  Chk2_pT68.R.C RPPA level: 0.939 and 1.327 and 1.189
  Claudin.7.R.V RPPA level: 1.057 and 0.909 and 0.755
  Collagen.VI.R.V RPPA level: 1.076 and 0.844 and 1.257
  Complex.II.Subunit.M.V RPPA level: 1.008 and 1.014 and 0.777
  Connexin.43.R.C RPPA level: 1.009 and 1.236
  Coup.TFII.R.C RPPA level: 0.833 and 1.226
  Cox2.R.C RPPA level: 1.024 and 0.895 and 1.250
  Cox.IV.R.V RPPA level: 0.999 and 1.060 and 1.025
  Creb.R.C RPPA level: 1.026 and 1.133 and 1.082
  CtIP.R.V RPPA level: 0.829 and 1.057 and 0.997
  Cyclin.B1.R.V RPPA level: 1.136 and 0.725 and 1.229
  Cyclin.D1.R.C RPPA level: 1.048 and 0.891 and 1.065
  Cyclin.D3.M.V RPPA level: 1.309 and 1.005 and 0.824
  Cyclin.E1.R.V RPPA level: 1.096 and 0.925 and 0.965
  Cyclophilin.F.M.V RPPA level: 0.978 and 1.019 and 0.727
  D.a.Tubulin.R.V RPPA level: 0.975 and 1.193
  DAPK1_pS308.M.C RPPA level: 1.267 and 0.870 and 0.330
  DAPK2.R.C RPPA level: 0.970 and 1.126 and 1.124
  DDB.1.R.V RPPA level: 0.890 and 0.958 and 1.524
  DDR1.R.V RPPA level: 1.024 and 0.829 and 1.002
  DDR1_pY513.R.C RPPA level: 1.024 and 0.961 and 1.078

— publication PMC9127750, “Structure-based design of CDC42 effector interaction inhibitors for the treatment of cancer” (Cell reports, 2022)
